Data reported in article PMC12036875, “Mitochondria-targeting natural product rhein conjugated with dichloroacetate as the dual inhibitor of glycolysis and oxidative phosphorylation to off energize cancer cells and induce ROS storm” (Theranostics, 2025).

Tests used:
[1] = test system: Cyt C protein in 4T1 cells; assay: Western blot of Cyt C; format: cell-based, Mouse; details: 6.25 μM, 24 h
Description: The opening of mPTP in mitochondria often leads to the release of pro-apoptotic factor such as cytochrome C (Cyt C), thereby inducing apoptosis. Western blot was applied to measure the level of Cyt C in 4T1 cells after treatment with different drugs. The ratio of the integrated density value of target Cyt C protein to the internal parameter β-actin protein was also analyzed (Figure 4B). […] The released Cyt C in the rhein and R + D groups was 4.4- and 5.0-fold than that of the control group, respectively, clarifying that rhein component could boost the release of Cyt C in 4T1 cells.
4T1 cells were seeded in 6-well plates at a density of 20 × 10^4 cells per well and cultured for 24 h. Then the cells were treated with rhein, DCA, R + D and Rhein-DCA conjugate, each at a concentration of 6.25 μM for 24 h. Cells were washed twice with PBS and lysed by RIPA total protein extraction solution containing multiple protease inhibitors for 30 min while being maintained on ice. The lysate was centrifuged at 9391 G for 10 min at 4 °C to obtain the total protein solution. The concentrations of total protein were determined with BCA Protein Assay Kit. The protein was further denatured with 5 × protein loading buffer at 100 °C for 15 min. Sodium dodecyl sulfate polyacrylamide gel electrophoresis was conducted to separate the protein and transferred it to PVDF membranes. The PVDF membranes were blocked with 5% skim milk for 30 min at room temperature and incubated with indicated primary antibodies: Anti-Cytochrome C Rabbit pAb (1:1000); Anti-β-actin Rabbit pAb (1:1000); or Anti-PDHA1 Rabbit mAb (phosphoS^293) (1:1000) overnight at 4 °C. The membranes were incubated with HRP conjugated Goat Anti-Rabbit IgG (H+L) (1:5000), respectively, for 30 min at room temperature and then analyzed by chemiluminescence (Clinx,6100).

4T1 cells = assay: Intracellular ATP detection; format: cell-based, Mouse; details: 6.25 μM, vs control
Description: Rhein-DCA conjugate achieved synergetic fatal energy depletion in tumor cells.
The intracellular ATP content was measured with PhosphoWorks™ Colorimetric ATP Assay Kit. Specifically, 4T1 cells and 293T cells were seeded in 12-well plates at a density of 2 × 10^5 cells per well and further cultured for 24 h at 37 °C in an atmosphere of 95% air and 5% CO2. For the control group, the culture medium was replaced with fresh medium. For the rhein, DCA, R + D, and Rhein-DCA groups, the medium was replaced with fresh medium containing the indicated drugs at a concentration of 6.25 μM. It should be noted that in the Rhein-DCA + CsA group, the cells were pretreated with CsA (2.5 μM) for 1 h at 37 °C before being cultured with Rhein-DCA. The cells were collected and suspended in 80 μL triton-X-100 (1% in PBS) to obtain cell lysates by twice freeze-thaw. Then the supernatant was collected after centrifugation at 9391 G for 10 min for subsequent analysis. Finally, 50 μL of supernatant was separately mixed evenly with 50 μL ATP working solution and the mixture was incubated for 30 min at room temperature. The absorbance at 570 nm was monitored with microplate reader.

4T1 tumor = assay: In vivo antitumor effect, 4T1 tumor xenograft model; set-up: species or system Balb/c mice; details: for tumor H&E and TUNEL staining: 20 mg/kg oral; for tumor H&E and TUNEL staining / tumor growth compared with vehicle group: 24 days; for tumor growth compared with vehicle group: oral gavage daily, n = 5
Description: The antitumor efficiency of Rhein-DCA conjugate in vivo was explored using the female Balb/c mice with 4T1 tumor xenografts model. Briefly, 4T1-tumor bearing mice were randomly divided into vehicle, rhein, DCA, R + D and Rhein-DCA conjugate groups when the tumor became apparent (n = 5). Mice were treated daily with vehicle (2.85% anhydrous ethanol / 10% cremophor / 0.02% 0.1 M HCl / 87.15% saline) and rhein, DCA, R + D and Rhein-DCA conjugate (20 mg/kg) by oral gavage for 24 days. The body weight and tumor volume of mice were monitored and recorded every two days. […] The photograph and the weight information of all excised tumor xenografts further visually confirmed the antitumor effect of Rhein-DCA conjugate in vivo (Figure 6C-D). […] Due to suppression of tumor growth, the survival of mice treated with Rhein-DCA conjugate was improved in contrast to vehicle group (Figure S22).
Balb/c female mice (6 weeks) and Sprague-Dawley (SD) rats were purchased from Hubei provincial laboratory animal research center (Wuhan, P. R. China). All related animal experiments were approved by the Animal Welfare Committee of the Animal Experiment Center of Wuhan University. All Balb/c mice were shaved two days in advance and then subcutaneously injected with 4T1 cells (5 × 10^6 cells in 50 μL of PBS per mouse) into the back of the right leg. The 4T1 tumor bearing mice were randomly divided into five groups (5 mice per group) which containing vehicle, rhein, DCA, R + D and Rhein-DCA groups when the tumor volumes reached about 100~120 mm^3. The tumor size was calculated with the following formula:
Subsequently, mice were orally treated with vehicle (2.85% anhydrous ethanol / 10% cremophor / 0.02% HCl (0.1 M) / 87.15% saline) and rhein, DCA, R + D and Rhein-DCA (20 mg/kg, suspended in 2.85% anhydrous ethanol / 10% cremophor / 0.02% HCl (0.1 M) / 87.15% saline) every day. The body weight and tumor size changes of each mouse were measured and recorded every two days.
After 24 days, the mice were euthanized, and then tumors were excised to photographing and weighting. The tumors in each group were performed with TUNEL (green fluorescence) and H&E assay. In addition, immunohistochemical staining was conducted on the tumor tissue to determine the pPDHA1-Ser^293 protein level. Besides, immunofluorescence staining was used to detect the expression of HMGB1 protein in the tumor.

[2] = test system: tumor-associated macrophages in 4T1 tumors; assay: Tumor-associated macrophages detection (flow cytometry); format: in vivo, Balb/c mice; details: primary 4T1 tumors; for M1 macrophages (CD80+ in CD11b+ cells) / M2 macrophages (CD206+ in CD11b+ cells): 20 mg/kg oral, 24 days; for M1 macrophages (CD80+ in CD11b+ cells): vehicle 5.8%; for M2 macrophages (CD206+ in CD11b+ cells): vehicle 36.5%
Description: To further investigate the immunomodulatory effects of the Rhein-DCA conjugate, we analyzed TAMs by flow cytometry, where CD11b and CD80 antibodies were labeled for M1-phenotype macrophages (Figure 7D), CD11b and CD206 antibodies were labeled for M2-phenotype macrophages (Figure 7E).
The macrophages within the tumor microenvironment of tumor tissues were further analyzed. Tumor tissues were minced into small pieces and then digested in a solution containing 1 mg/mL of collagenase IV, 0.1 mg/mL of hyaluronidase and 0.1 mg/mL of DNAase I at 37 °C for 1.5 h. The supernatants containing single cells were collected by filtering through 200 mesh filters. Cells were obtained by centrifugation and further blocked with anti-CD16/32 (1 μg/100 μL) for 10 min in an ice bath. Thereafter, FITC anti-mouse CD11b (1 μg/100 μL) and PE anti-mouse CD80 (1 μg/100 μL) antibodies were employed to stain the cells in an ice bath for 20 min. After that, the cells were collected and fixed with 4%-paraformaldehyde at room temperature for 20 min, and then stained with APC anti-mouse CD206 antibody (0.5 μg/100 μL, in 1 × Fix/Perm buffer) at room temperature in the dark for 20 min. Finally, cells were analyzed with flow cytometry after being resuspended in 1 × Perm/Wash buffer.

SMILES	released Cyt C, in words [1]	intracellular ATP amount (4T1 cells)	tumor H&E and TUNEL staining (4T1 tumor)	tumor growth compared with vehicle group (4T1 tumor; 20 mg/kg)	M1 macrophages (CD80+ in CD11b+ cells) [2] [%]	M2 macrophages (CD206+ in CD11b+ cells) [2] [%]	released Cyt C relative to control group (Cyt C/β-actin) [1] [fold]	survival of mice in contrast to vehicle group (4T1 tumor; 20 mg/kg, oral)	M1 macrophages increase vs vehicle [2] [fold]	M2 macrophages reduction vs vehicle [2] [fold]
O=C(O)C(Cl)Cl [DCA, Dichloroacetate]	could almost be disregarded	slight increase	mild apoptosis and necrosis	slight inhibition	7.7	13.6	–	–	–	–
O=C(O)c1cc(O)c2c(c1)C(=O)c1cccc(O)c1C2=O [Rhein, 4,5-dihydroxyanthraquinone-2-carboxylic acid]	–	decrease	mild apoptosis and necrosis	slight inhibition	6.0	16.6	4.4	–	–	–
O=C(OCCOC(=O)C(Cl)Cl)c1cc(O)c2c(c1)C(=O)c1cccc(O)c1C2=O [Rhein-DCA]	more Cyt C than rhein and R + D groups	significant decrease	more extensive tissue necrosis and considerable cell apoptosis	significant inhibition	10.3	3.9	–	improved	1.8	9.4
